Reference: patent US20210252175A1, “NOVEL COMPOUNDS FOR DIAGNOSIS” (AC IMMUNE SA, priority 2018, published 2021)
“Also recorded” adds a separate entry of the source. Where two headings read alike, the source gives them in different places.

Columns and labels:
[1] = biological target: T1, Recombinant human full-length wild-type aSyn fibrils (Homo sapiens, UniProt P37840); assay: Radio-binding competition assay on recombinant aSyn fibrils; settings: for improvement of Ki value on aSyn fibrils compared to compounds 70 and 71 of WO2017/153601: head-to-head within the same measurement; for binding to aSyn fibrils in comparison to Examples 70 and 71 of WO2017/153601: comparison of Ki values of Table 9; for Kd: read-out: Kd of the radioligand on aSyn fibrils
T1 construct: Recombinant human full-length wild-type aSyn bacterially expressed; purchased rPeptide, US
Description: Recombinant human full-length wild-type aSyn bacterially expressed was obtained from a commercial provider (rPeptide, US). Protein preparation was transferred into polycarbonate centrifuge tubes (8×51 mm; Beckman 355657) and centrifuged at 100,000 g (38,000 rounds per minute, RPM) in an ultracentrifuge (Beckman, XL100K) for 60 min at 4° C. using the pre-cooled 50.4 Ti rotor (Beckman) to pellet any aggregated material. Supernatant was transferred into a sterile, low retention tube at a final concentration of 5 mg/mL and final volume of 0.5 mL in PBS. The protein was placed in a Thermomixer (Eppendorf) and incubated for 7 days at 37° C. with orbital shaking at 1000 rpm to generate aSyn fibrils.
Material containing aSyn fibrils was transferred into polycarbonate centrifuge tubes (8×51 mm; Beckman 355657) and centrifuged at 100,000 g (38,000 RPM) in an ultracentrifuge (Beckman, XL100K) for 60 min at 4° C. using the pre-cooled 50.4 Ti rotor. The supernatant containing still monomeric aSyn was transferred into new tubes and its concentration was determined. The pellet was resuspended with equal volume of PBS and subjected to further rounds of ultracentrifugation until the concentration obtained for the supernatant was below 0.1 mg/mL. The pellet obtained at the last round of ultracentrifugation containing aSyn fibrils was aliquoted and stored at −80° C. until use. Aggregated aSyn was used at a concentration of 1 μM in radiobinding assays.
Determination of the Binding Affinity (Ki) by Radio-Binding Competition Assay Recombinant aSyn fibrils at concentration of 1 μM were incubated with [^3H] Example 69 disclosed in WO2017/153601, used as aSyn reference binder, at concentrations between 25 nM and 35 nM. The example compounds of this invention were incubated at increasing concentrations in the range 0.4 nM to 2 μM for 120 minutes at 25° C. 90 μL of samples in duplicates were then filtered under vacuum on a GF/C filter plate (PerkinElmer 6005174) to trap the aSyn fibrils with the bound radio-ligand, and washed five times with Tris 50 mM buffer pH 7-5. The GF/C filters were then vacuum-dried, 50 μL scintillation liquid (Ultimate Gold MB, PerkinElmer) was added in each well, and the filters were analyzed on a Microbeta2 device. Non-specific signal was determined with an excess of un-labeled ligand and specific binding was calculated by subtracting the non-specific signal from the total signal. Competition was calculated as percent, where 0% was defined as the specific binding in the presence of vehicle (0.1% DMSO in 50 mM Tris in 0.9% NaCl, 0.1% BSA) and 100% as the values obtained in the presence of excess cold Example 69 disclosed in WO2017/153601. All measurements were performed with at least two technical replicates. The K; values were calculated by nonlinear regression, one site specific binding using Prism V7 (GraphPad). Ki values to recombinant aSyn fibrils were determined in independent experiments and two different batches of aSyn fibrils, derived from the same source but different lots of monomeric aSyn. Results of radio-binding competition assay for the example compounds tested in parallel within the same experiment are shown in Table 9 as measurements A and B. Measurement A was performed on one batch of aSyn fibrils; the Kd for the radioligand [^3H] Example 69 disclosed in WO20171153601 for this batch of aSyn fibrils was 32 nM. Measurement B was performed on second batch of aSyn fibrils, the corresponding Kd for the radioligand [^3H] Example 69 disclosed in WO2017/153601 for the second batch of aSyn fibrils was 60 nM.

[2] = biological target: T2, Aβ pathological aggregates present in the human AD insoluble fractions (Homo sapiens, UniProt P05067); assay: Radio-binding competition assay on human AD insoluble fraction; settings: for Ki: radioligand [3H] Example 47 of WO2017/153601 at 7 nM
T2 construct: "4.7 g of frontal lobe tissue from post-mortem brain of one Alzheimer's disease (AD) patient"
T2 sequence (P05067 whole entry): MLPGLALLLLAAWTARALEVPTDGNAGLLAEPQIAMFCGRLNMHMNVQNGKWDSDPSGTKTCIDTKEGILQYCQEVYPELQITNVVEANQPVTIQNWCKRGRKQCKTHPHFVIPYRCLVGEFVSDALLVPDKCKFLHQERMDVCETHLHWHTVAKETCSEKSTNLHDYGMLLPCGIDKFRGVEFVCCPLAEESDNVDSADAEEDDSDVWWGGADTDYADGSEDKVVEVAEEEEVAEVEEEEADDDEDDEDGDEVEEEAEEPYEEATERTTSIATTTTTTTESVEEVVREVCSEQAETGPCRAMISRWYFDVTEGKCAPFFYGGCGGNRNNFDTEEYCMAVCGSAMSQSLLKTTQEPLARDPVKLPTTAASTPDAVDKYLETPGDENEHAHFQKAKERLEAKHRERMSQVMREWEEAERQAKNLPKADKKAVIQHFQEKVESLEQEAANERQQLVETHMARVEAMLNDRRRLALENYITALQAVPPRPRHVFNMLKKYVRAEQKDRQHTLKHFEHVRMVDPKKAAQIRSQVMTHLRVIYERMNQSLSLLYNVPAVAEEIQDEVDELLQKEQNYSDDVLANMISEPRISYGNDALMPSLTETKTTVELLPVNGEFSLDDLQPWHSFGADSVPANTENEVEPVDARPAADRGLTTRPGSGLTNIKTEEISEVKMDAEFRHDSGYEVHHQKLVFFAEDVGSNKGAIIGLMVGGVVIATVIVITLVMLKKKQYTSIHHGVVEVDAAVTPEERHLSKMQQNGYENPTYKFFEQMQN
Description: 4.7 g of frontal lobe tissue from post-mortem brain of one Alzheimer's disease (AD) patient were purchased from an external provider (Tissue Solutions Ltd., UK). The patient was a […] and died […]. The brain sample was collected 7.7 hours post-mortem and characterized for Braak disease stage (Braak, H.; Braak, E. Acta Neuropathol., 1991, 82, 239-259) as stage VI. For the preparation of the insoluble fractions, around 3 g of the AD human brain was thawed on ice and homogenized with 8.9 mL of homogenization buffer (0.75 M NaCl, 5 mM EDTA, 50 mM Tris-HCl, pH 7.5) supplemented with protease inhibitors (Complete; Roche 11697498001) in a glass Dounce homogenizer. The homogenization was performed at 4° C. The homogenate was transferred into polycarbonate centrifuge tubes (16×76 mm; Beckman 355603) and centrifuged at 100,000 g (38,000 RPM) in an ultracentrifuge (Beckman, XL100K) for 60 min at 4° C. using the pre-cooled 70.1 rotor (Beckman, 342184). Supernatants were discarded and pellets were re-suspended in 8.9 mL of homogenization buffer supplemented with 1% Triton X-100 (Sigma 93426) and processed with glass Dounce homogenizer at 4° C. The solution was then transferred into polycarbonate centrifuge bottles (16×76 mm; Beckman 355603) and centrifuged at 100,000 g (38,000 RPM) in an ultracentrifuge (Beckman, XL100K) for 60 min at 4° C. using the 70.1 Ti rotor. The process was repeated one more time (supernatants were discarded and pellets were re-suspended in 8.9 mL of homogenization buffer supplemented with 1% Triton X-100 and 1M sucrose processed with glass Dounce homogenizer at 4° C. The solution was then centrifuged at 100,000 g (38,000 RPM) for 60 min at 4° C. using the 70.1 Ti rotor). Supernatant was discarded and pellet was resuspended in 4 mL of PBS to obtain the insoluble fraction. The material was aliquoted and stored at −80° C. until use.
AD insoluble fractions diluted 1/100 were incubated in the presence of [^3H] Example 47 disclosed in WO2017/153601 used as Aβ reference binder, at a concentration of 7 nM and the example compounds of this invention were prepared at increasing concentrations in the range 0.4 nM to 2 μM for 120 minutes at 25° C. 90 μL of samples in duplicates were then filtered under vacuum on a GF/C filter plate (PerkinElmer 6005174) to trap the Aβ aggregates within the AD insoluble fractions with the bound radio-ligand, and washed five times with Tris 50 mM buffer pH 7-5. The GF/C filters were then vacuum-dried, 50 μL scintillation liquid (Ultimate Gold MB, PerkinElmer) was added in each well, and the filters were analyzed on a Microbeta2 device. Non-specific signal was determined with an excess of un-labeled ligand and specific binding was calculated by subtracting the non-specific signal from the total signal. Competition was calculated as percent, where 0% was defined as the specific binding in the presence of vehicle (0.1% DMSO in 50 mM Tris in 0.9% NaCl, 0.1% BSA) and 100% as the values obtained in the presence of excess cold Example 47 disclosed in WO2017/153601. The Ki values were calculated by nonlinear regression, one site specific binding using Prism V7 (GraphPad). Ki values to AD insoluble fraction were determined in independent experiments. Results of radio-binding competition assay on AD insoluble fraction are shown in Table 9 as measurements C and D. The Kd for the radioligand [^3H] Example 47 disclosed in WO2017/153601 on the AD insoluble fraction in measurements C and D was 8 nM.
Example compounds are ranked based on the measured Ki values to Aβ pathological aggregates present in the AD insoluble fractions.

[3] = measurement A, first batch of aSyn fibrils, radioligand [3H] Example 69 of WO2017/153601 (Kd 32 nM), read-out: Ki on aSyn Fibrils, measurement A
[4] = measurement B, second batch of aSyn fibrils, radioligand [3H] Example 69 of WO2017/153601 (Kd 60 nM), read-out: Ki on aSyn Fibrils, measurement B
[5] = measurement C, read-out: Ki on human AD-Insoluble Fraction, measurement C
[6] = measurement D, read-out: Ki on human AD-Insoluble Fraction, measurement D

Ki [1, 3]	Ki [1, 4]	Ki [2, 5]	Ki [2, 6]	binding to aSyn fibrils in comparison to Examples 70 and 71 of WO2017/153601 [1]	SMILES	also measured
–	0.0968 µM	–	> 0.5 µM	similar	CN1CCN(c2cc3sc(-c4ccc(N5CC(F)C5)nc4)nc3cn2)C(=O)C1 [Example 3A]	–
0.0278 µM	–	0.05 to 0.5 µM	0.05 to 0.5 µM	improved	CNc1ncc(-c2nc3cnc(N4CCN(C)CC4=O)cc3s2)cc1F [Example 3B]	–
0.0384 µM	–	–	> 0.5 µM	improved	CN1CCN(c2cc3sc(-c4cnc(N5CC[C@@H](F)C5)nc4)nc3cn2)C(=O)C1 [Example 3D]	–
0.0553 µM	–	–	> 0.5 µM	similar	CN1CCN(c2ncc3nc(-c4ccc(N5CC(F)C5)nc4)sc3n2)C(=O)C1 [Example 7A]	–
0.0313 µM	–	–	> 0.5 µM	improved	CN1CCN(c2ncc3nc(-c4ccc(N5CCC[C@@H](F)C5)nc4)sc3n2)C(=O)C1 [Example 7B]	–
0.0342 µM	–	> 0.5 µM	> 0.5 µM	improved	CN1CCN(c2ncc3nc(-c4ccc(N5CCC[C@H](F)C5)nc4)sc3n2)C(=O)C1 [Example 7C]	–

The next lines start with the molecule.

SMILES	Ki [1, 3]	Ki [1, 4]	Ki [2, 5]	Ki [2, 6]	binding to aSyn fibrils in comparison to Examples 70 and 71 of WO2017/153601 [1]	also measured
CN1CCN(c2cc3sc(-c4ccc(N5CC[C@@H](F)C5)nc4)nc3cn2)C(=O)C1 [Example 1]	0.0147 µM	0.0319 µM	> 0.5 µM	–	–	improvement of Ki value on aSyn fibrils compared to compounds 70 and 71 of WO2017/153601 [1]: improved by at least twofold
CN1CCN(c2cc3sc(-c4ccc(N5CC[C@H](F)C5)nc4)nc3cn2)C(=O)C1 [Example 2]	0.0122 µM	0.0319 µM	> 0.5 µM	> 0.5 µM	–	improvement of Ki value on aSyn fibrils compared to compounds 70 and 71 of WO2017/153601 [1]: improved by at least twofold
CN1CCN(c2cc3sc(-c4cnc(N5CCC5)c(F)c4)nc3cn2)C(=O)C1 [Example 3C]	0.0058 µM	–	–	> 0.5 µM	improved; also recorded: considerably greater affinity	–
CN1CCN(c2ncc3nc(-c4ccc(N5CC[C@@H](F)C5)nc4)sc3n2)C(=O)C1 [Example 3]	–	0.0283 µM	> 0.5 µM	> 0.5 µM	–	–
CN1CCN(c2ccc3nc(-c4ccc(N5CC[C@@H](F)C5)nc4)sc3n2)C(=O)C1 [Example 4]	–	–	–	–	–	improvement of Ki value on aSyn fibrils compared to compounds 70 and 71 of WO2017/153601 [1]: improved by at least twofold
CN1CCN(c2ncc3nc(-c4ccc(N5CC[C@H](F)C5)nc4)sc3n2)C(=O)C1 [Example 4]	–	0.0528 µM	–	> 0.5 µM	–	–
CN1CCN(c2ccc3nc(-c4ccc(N5CC[C@@H](F)C5)nc4)sc3n2)C(=O)C1 [Example 5]	–	0.0417 µM	–	> 0.5 µM	–	–
CN1CCN(c2ccc3nc(-c4ccc(N5CC[C@H](F)C5)nc4)sc3n2)C(=O)C1 [Example 5]	–	–	–	–	–	improvement of Ki value on aSyn fibrils compared to compounds 70 and 71 of WO2017/153601 [1]: improved by at least twofold
CN1CCN(c2ccc3nc(-c4ccc(N5CC[C@@H](F)C5)nc4)sc3c2)C(=O)C1 [Example 70 of WO2017/153601, reference compound]	0.039 µM	0.0977 µM	> 0.5 µM	–	–	–
CN1CCN(c2ccc3nc(-c4ccc(N5CC[C@H](F)C5)nc4)sc3c2)C(=O)C1 [Example 71 of WO2017/153601, reference compound]	0.0469 µM	0.0737 µM	> 0.5 µM	–	–	–
[3H]C([3H])([3H])Nc1ccc(-c2ccc3cc(-c4cccnc4)sc3n2)cn1 [[^3H] Example 47 of WO2017/153601, reference compound]	–	–	–	–	–	Kd ([2]; measurements C and D, read-out: Kd of the radioligand on the AD insoluble fraction): 0.008 µM
[3H]C([3H])([3H])N1CCN(c2ccc3nc(-c4ccc(N5CCCC5)nc4)sc3c2)C(=O)C1 [[^3H] Example 69 of WO2017/153601, reference compound]	–	–	–	–	–	Kd ([1]; batch of aSyn fibrils of measurement A): 0.032 µM; Kd ([1]; second batch of aSyn fibrils, measurement B): 0.06 µM
